Test results reported in US20250074871A1, “PHENETHYLAMINES AND METHODS OF PREPARATION THEREOF” (priority 2022, published 2025).
Where two headings read alike, the source gives them in different places.

Experiments:
Type in all cases: cell-based
[1] = target: T1, 5-HT2A receptor (Homo sapiens, UniProt P28223); assay: 5-HT2A Gq dissociation BRET functional assay; conditions: Table 2; for 5-HT2A BRET Eff %: normalized to % 5-HT stimulation; for EC50: at least three replicate trials
T1 construct: expressed in transfected cells; host or cells: HEK293T

[2] = target: T2, 5-HT2B receptor (Homo sapiens, UniProt P41595); assay: 5-HT2B Gq dissociation BRET functional assay; conditions: Table 2; for EC50: at least three replicate trials; for 5-HT2B BRET Eff %: normalized to % 5-HT stimulation
T2 construct: expressed in transfected cells; host or cells: HEK293T

[3] = target: T3, 5-HT2C receptor (Homo sapiens, UniProt P28335); assay: cell-based; conditions: Table 2; for EC50: at least three replicate trials, read-out: 5-HT2C BRET EC50; for 5-HT2C BRET Eff %: normalized to % 5-HT stimulation
T3 construct: expressed in transfected cells; host or cells: HEK293T
T3 sequence (P28335 33-458): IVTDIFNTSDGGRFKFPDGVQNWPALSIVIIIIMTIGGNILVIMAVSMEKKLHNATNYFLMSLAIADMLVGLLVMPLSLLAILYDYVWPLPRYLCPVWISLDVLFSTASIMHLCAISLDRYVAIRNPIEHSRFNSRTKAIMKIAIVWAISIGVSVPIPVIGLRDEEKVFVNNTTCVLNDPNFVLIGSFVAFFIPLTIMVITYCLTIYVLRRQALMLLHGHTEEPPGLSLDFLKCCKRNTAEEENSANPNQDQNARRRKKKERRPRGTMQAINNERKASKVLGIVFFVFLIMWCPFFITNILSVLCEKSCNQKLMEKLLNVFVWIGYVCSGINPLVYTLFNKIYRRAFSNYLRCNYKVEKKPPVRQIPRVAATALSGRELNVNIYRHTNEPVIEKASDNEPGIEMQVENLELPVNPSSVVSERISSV

T2 sequence (P41595 whole entry): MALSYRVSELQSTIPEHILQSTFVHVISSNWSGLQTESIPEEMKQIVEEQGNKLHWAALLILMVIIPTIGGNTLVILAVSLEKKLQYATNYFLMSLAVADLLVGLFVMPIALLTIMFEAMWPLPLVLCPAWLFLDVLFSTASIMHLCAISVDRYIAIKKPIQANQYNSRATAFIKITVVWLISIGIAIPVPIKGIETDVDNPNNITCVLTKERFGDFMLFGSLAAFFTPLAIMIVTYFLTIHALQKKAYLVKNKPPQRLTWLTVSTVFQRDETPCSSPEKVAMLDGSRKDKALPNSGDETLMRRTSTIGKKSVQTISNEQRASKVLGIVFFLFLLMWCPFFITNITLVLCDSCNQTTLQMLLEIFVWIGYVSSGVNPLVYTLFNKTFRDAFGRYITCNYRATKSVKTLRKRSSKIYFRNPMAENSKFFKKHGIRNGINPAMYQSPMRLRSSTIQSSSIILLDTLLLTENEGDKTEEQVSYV
T1 sequence (P28223 whole entry): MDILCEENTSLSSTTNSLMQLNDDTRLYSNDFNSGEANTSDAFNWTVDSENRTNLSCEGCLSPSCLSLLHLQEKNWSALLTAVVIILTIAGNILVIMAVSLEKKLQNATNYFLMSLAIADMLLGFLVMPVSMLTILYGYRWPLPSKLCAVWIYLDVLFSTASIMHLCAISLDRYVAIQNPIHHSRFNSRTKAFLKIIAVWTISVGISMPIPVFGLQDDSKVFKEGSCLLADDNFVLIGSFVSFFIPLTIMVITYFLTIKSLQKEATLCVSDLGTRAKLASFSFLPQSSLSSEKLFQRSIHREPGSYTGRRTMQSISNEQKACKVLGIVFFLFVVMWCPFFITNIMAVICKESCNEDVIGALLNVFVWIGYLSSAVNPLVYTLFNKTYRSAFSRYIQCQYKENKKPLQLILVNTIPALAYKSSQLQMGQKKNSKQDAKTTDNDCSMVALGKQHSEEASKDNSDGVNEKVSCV

| Structure (SMILES) | 5-HT2A BRET Eff % [1] [%] | EC50 ([2]; 5-HT2B BRET EC50 (nM)) [nM] | 5-HT2B BRET Eff % [2] [%] | EC50 [3] [nM] | 5-HT2C BRET Eff % [3] [%] | EC50 ([1]; 5-HT2A BRET EC50 (nM)) [nM] | 5-HT2B BRET EC50 (nM) / Eff % [2] | EC50 ([1]; read-out: 5-HT2A BRET EC50) [nM] | EC50 ([2]; read-out: 5-HT2B BRET EC50) [nM] | 5-HT2C BRET EC50 (nM) / Eff % (merged cell, word) [3] |
| --- | --- | --- | --- | --- | --- | --- | --- | --- | --- | --- |
| NCCc1c[nH]c2ccc(O)cc12 [5-hydroxytryptamine (serotonin), 5-hydroxytryptamine, reference compound] | 100 | – | – | – | – | – | – | – | – | – |
| COc1cc(C#N)c(F)cc1CCNCc1ccccc1O [Cpd #4] | 99 | 4090 | 73 | 37.5 | 115 | 2.4 | – | – | – | – |
| COc1cc(C#N)ccc1CCNCc1ccccc1F [Cpd #6] | 81 | – | – | 2120 | 130 | 381 | Inactive | – | – | – |
| COc1cc(C#N)ccc1CCNCc1cccc(F)c1 [Cpd #7] | 84 | – | – | 800 | 126 | 133 | Inactive | – | – | – |
| COc1cc(C#N)ccc1CCNCc1ccc(F)cc1 [Cpd #8] | 52 | – | – | 8740 | 79 | 13100 | Inactive | – | – | – |
| COc1cc(C#N)ccc1CCNCc1cccc(Cl)c1 [Cpd #13] | 69 | – | – | 1840 | 96 | 393 | Inactive | – | – | – |
| COc1cc(C#N)ccc1CCNCc1ccc(Cl)cc1 [Cpd #14] | 40 | – | – | 13300 | 74 | 14300 | Inactive | – | – | – |
| COc1ccc(CNCCc2ccc(C#N)cc2OC)cc1 [Cpd #29] | 59 | – | – | 924 | 75 | 3950 | Inactive | – | – | – |
| COc1cc(C#N)ccc1CCNC1COc2ccccc21 (stereo not shown) [Cpd #52] | 69 | – | – | 12100 | 125 | – | Inactive | 1040 | – | – |
| COc1cc(C#N)ccc1CCNCc1c(Cl)cccc1Cl [Cpd #58] | 79 | – | – | 2170 | 85 | 496 | Inactive | – | – | – |
| COc1cc(C#N)ccc1CCNCc1ccc(F)cc1F [Cpd #59] | 58 | – | – | 9930 | 94 | 14100 | Inactive | – | – | – |
| N#Cc1ccc(CCNCc2cccc3ccsc23)c(O)c1 [Cpd #70] | 11 | – | – | 5400 | 160 | – | Inactive | 0.3 | – | – |
| N#Cc1ccc(CCNCc2cccc3cc[nH]c23)c(O)c1 [Cpd #71] | 59 | – | – | 10700 | 92 | – | Inactive | 1140 | – | – |
| COc1cc(C#N)ccc1CCNCc1cccc2ncn(C)c12 [Cpd #73] | 4 | – | – | 0.04 | 7 | – | Inactive | 73 | – | – |
| COc1cc(C#N)ccc1CCN(C)Cc1ccccc1Cl [Cpd #88] | 14 | 4980 | 20 | 310000 | 86 | 0.01 | – | – | – | – |
| COc1ccc(CCNCc2ccccc2O)c(OC)c1 [Cpd #96, reference compound] | 95 | – | – | 7.2 | 109 | 2.3 | Inactive | – | – | – |

| Structure (SMILES) | 5-HT2A BRET Eff % [1] [%] | EC50 ([2]; 5-HT2B BRET EC50 (nM)) [nM] | 5-HT2B BRET Eff % [2] [%] | EC50 [3] [nM] | 5-HT2C BRET Eff % [3] [%] | EC50 ([1]; 5-HT2A BRET EC50 (nM)) [nM] | 5-HT2B BRET EC50 (nM) / Eff % [2] | EC50 ([1]; read-out: 5-HT2A BRET EC50) [nM] | EC50 ([2]; read-out: 5-HT2B BRET EC50) [nM] | 5-HT2C BRET EC50 (nM) / Eff % (merged cell, word) [3] |
| --- | --- | --- | --- | --- | --- | --- | --- | --- | --- | --- |
| COc1cc(-c2cnoc2)ccc1CCNCc1ccccc1Cl [Cpd #101] | 65 | – | – | 9520 | 116 | – | Inactive | 270 | – | – |
| COc1cc(-c2ncco2)ccc1CCNCc1ccccc1Cl [Cpd #102] | 61 | – | 143 | 1640 | 101 | – | – | 2090 | 5370 | – |
| COc1cc(-c2ncccn2)ccc1CCNCc1ccccc1Cl [Cpd #104] | 71 | – | – | 5690 | 106 | – | Inactive | 4890 | – | – |
| COc1cc(-c2cncnc2)ccc1CCNCc1ccccc1Cl [Cpd #105] | 86 | – | – | 1490 | 107 | – | Inactive | 1610 | – | – |
| COc1cc(C#N)ccc1CCNCc1ccccc1O [Cpd #113] | 90 | 1290 | 34 | 30.3 | 102 | 4.9 | – | – | – | – |
| N#Cc1ccc(CCNCc2ccccc2O)cc1 [Cpd #114] | 88 | – | 11 | 322 | 92 | – | – | 154 | 6490 | – |
| N#Cc1ccc(CCNCc2ccccc2O)c(OC(F)(F)F)c1 [Cpd #115] | 94 | – | – | 380 | 104 | 212 | Inactive | – | – | – |
| Oc1cc(C(F)(F)F)ccc1CCNCc1ccccc1O [Cpd #116] | 89 | – | – | 1.7 | 100 | 1 | Inactive | – | – | – |
| COc1ccc(CCNCc2ccccc2SC)c(O)c1 [Cpd #119] | 100 | 2540 | 108 | 114 | 119 | 4.6 | – | – | – | – |
| CSc1ccccc1CNCCc1ccc(O)cc1O [Cpd #120] | 90 | – | – | – | – | – | Inactive | 518 | – | Inactive |
| CSc1ccc(CCNCc2ccccc2SC)c(O)c1 [Cpd #121] | 94 | 175 | 89 | 44.1 | 110 | 3.6 | – | – | – | – |
| CSc1ccccc1CNCCc1ccc(C(F)F)cc1O [Cpd #123] | 96 | 6720 | 95 | 30 | 120 | 3.2 | – | – | – | – |
| N#Cc1ccc(CCNCc2ccccc2OC(F)(F)F)c(O)c1 [Cpd #124] | 83 | – | 97 | 21.1 | 98 | – | – | 159 | 453 | – |
| CCCCCc1ccc(CCNCc2ccccc2O)c(OC)c1 [Cpd #125] | 96 | – | – | 55.8 | 105 | 13.5 | Inactive | – | – | – |
| COc1cc(Cc2ccccc2)ccc1CCNCc1ccccc1O [Cpd #126] | 99 | – | −23 | 3.8 | 111 | – | – | 1.2 | 0.02 | – |
